Experimental data: US11026940B2, “Compositions for the mobilization, homing, expansion and differentiation of stem cells and methods of using the same” (Ampio Pharmaceuticals, Inc., priority 2013, dated 2021)

Columns and labels:
CXCR4 = CXCR4 transcription by MSC in hanging drop (3D) culture, RTPCR; format: cell-based, human; details: Actin normalization, 4 days
Description: (§1) This effect is more pronounced if the cells are grown directly on plastic in a 2D conformation. In this example, MSCs are cultured in hanging drop cultures in the presence of Ampion™ and then mRNA is evaluated by RTPCR.
(§2) Materials: • Passage 5 Bone marrow derived human mesenchymal stem cells (HUXMA-01001, Cyagen Biosciences, Sunnyvale Calif.) • Mesenchymal Stem Cell Chondrogenic Differentiation medium (GUXMX-90041, Cyagen Biosciences, Sunnyvale Calif.) • TheraPEAK MSCGM chemically defined Stem cell medium (190632 Lonza) • Lonza MSGM (contains serum) • 10 mM Cobalt chloride in saline, sterile filtered (Sigma) • Saline or 0.9% Sodium chloride for injection ZR Flush (Excelsior Medical, Neptune N.J.) • 0.2 μM syringe filters • Hepes buffered saline, Trypsin/EDTA, Trypsin neutralizing solution (Lonza reagent pack) • 182 cm^2 tissue culture flasks • pipettes and sterile tips • Tissue culture hood, humidified CO2 incubator, water or bead bath • 10 cm^2 petri dishes • Qiagen RNeasy plus spin columns (Qiagen 74134) • Qiagen RT^2 qPCR primer pairs for CXCR4, CXCL12, Collagen 2A1, MMP14, MMP13, Aggrecan, IGA4, GAPDH, and Actin B • Roche Sybr green I master mix and Invitrogen Superscript VILO master mix. • Roche 480 lightcycler Cell Expansion: • Passage 5 HUXMA cells were removed from liquid nitrogen storage and expanded in 182 cm^2 flasks containing 40 mls TheraPEAK MSCGM until 80-90% confluence. • Trypsinize cells using standard protocol and proceed to the next step. […] RNA Isolations and Analysis: • After 4 days, remove the plates from the incubator. • Wash spheroids from the lid with 5 mls of the warm PBS in the bottom of each plate and transfer to 15 ml conical centrifuge tubes. • Spin cells at 1000 RPM for 5 minutes and aspirate the solution. • To each tube, add 350 μl Qiagen RNeasy plus lysis buffer (with 2ME). • Transfer solution to Qiashredder columns and spin at 14,000 rpm for 2 minutes. • Proceed with RNeasy plus protocol following manufacturers recommendations. • Elute RNA from columns using 30 μl RNase free water. cDNA Synthesis and Real Time PCR: • First strand synthesis of cDNA from all samples was then performed following the recommended 20 μl total volume protocol using 10 μl isolated RNA. • All cDNA reactions were then diluted with 30 μl nuclease free water. • Real time PCR was then performed using 5 μl diluted cDNA, Roche Syber green master mix, and Qiagen RT^2 qPCR primer pairs (20 μl total volume). • Relative gene expression determined by delta deta Ct method. […]

CXCL12 = CXCL12 transcription by MSC in hanging drop (3D) culture, RTPCR; format: cell-based, human; details: Actin normalization, 4 days
Description: as §1, §2

[1] = test system: Bone marrow derived human mesenchymal stem cells; assay: Migration (invasion) assay using pretreated stem cells, transwell, calcein AM fluorescence; format: cell-based; details: for mean FU: cells pretreated 72 hours, migration 24 hours; for FU 1: replicate 1; for FU 2: replicate 2; for FU 3: replicate 3
Description: This experiment will be designed to establish if migration of MSC is altered as well.
• Passage 5 Bone marrow derived human mesenchymal stem cells (HUXMA-01001, Cyagen Biosciences, Sunnyvale Calif.) • TheraPEAK MSCGM chemically defined Stem cell medium (190632 Lonza) • Lonza MSGM, Gibco RPMI, Gibco Defined fetal bovine serum. • 10 mM Cobalt chloride in saline, sterile filtered (Sigma) • Saline or 0.9% Sodium chloride for injection ZR Flush (Excelsior Medical, Neptune N.J.) • 0.2 μM syringe filters • Hepes buffered saline, Trypsin/EDTA, Trypsin neutralizing solution (Lonza reagent pack) • 25 and 175 cm^2 tissue culture flasks • pipettes and sterile tips • Tissue culture hood, humidified CO2 incubator, water or bead bath • 8.0 um Thincert tissue culture inserts and 24 well tissue culture plates (Greiner) • 50 μg Calcein AM vials (BD Biosciences) • DMSO (Sigma) Cell Expansion: • Passage 5 HUXMA cells were removed from liquid nitrogen storage and expanded in 175 cm^2 flasks containing 40 mls TheraPEAK MSCGM until 80-90% confluence. • Trypsinize cells using standard protocol and proceed to the next step. Treatment of Cells: • Prepare the following working dilutions in saline for injection from the stocks listed above. • Saline • 800 uM Cobalt Chloride in saline • Neat Ampion • Warm dilutions and Lonza MSCGM to 37° C. in bead bath. • Prepare a cell suspension of HUXMA stem cells in warmed MSCGM medium. • Count and then bring up 250,000 from the cell suspension in 4 mls warmed MSCGM. • Add the diluted cell solution to a 25 cm^2 tissue culture flasks. • Add 1 ml of the appropriate working dilution to the flask. • Incubate at 37° C. and 5% CO2 for 72 hours. Invasion Assay: • Remove the cells from the flask with trypsin and place in 600 μl RPMI+0.5% FBS. • Add 200 μl of the resulting cell suspension to the upper chamber of thinserts (3 inserts per treatment group) resting in a 24 well tissue culture plate. • Add 600 μl RPMI+0.5% FBS to the bottom chamber of the transwell system. • Add 66 μl of one the following solutions to the bottom chamber for each treatment group. • 550 ng/ml SDF (final 50 ng/ml) • 110 ng/ml TGF beta3 (final 10 ng/ml) • Serum (final 10%) • Incubate the plate for 24 hours at 37° C. and 5% CO2. Labeling and Cell Detection. • Remove two calcein AM vials and add 20 μl DMSO. • Transfer the contents of both vials to 12.5 ml RPMI containing 0.2% BSA. • Place 450 μl of the calcein AM solution (8 μM) in each well of a 24 well tissue culture plate. • Transfer the inserts from above to the wells containing calcein AM and incubate 45 minutes at 37° C. and 5% CO2. • After loading the cells with calcein AM, transfer the inserts to 24 well tissue culture plate wells containing 450 μl trypsin EDTA and incubate for another 10 minutes. • Discard inserts then add 450 μl trypsin neutralizing solution to each well. • Transfer 250 μl of the resulting solution to a 96 well black, flat bottom plate well (each reaction in triplicate). • Read fluorescence at 485 nm excitation and 530 nm emission.

Which “2-^ΔΔCp vs saline, CXCR4” value (CXCR4) does the source give for `[Cl][Co][Cl]` [Cobalt, Cobalt chloride] here?
The value was 8.369.

And the “regulation, CXCR4” value (CXCR4)?
The value was 8.37.

What about the “ΔΔCp vs saline, CXCR4” value (CXCR4) of the same molecule?
Its value is −3.065.

And the “ΔCp, CXCR4” value (CXCR4; hanging drop culture)?
The value was 11.19.

And the “2-ΔΔCp vs saline, CXCL12” value (CXCL12)?
The value was 0.005.

What about the “regulation, CXCL12” value (CXCL12) of the same molecule?
Its value is −219.79.

What about the “ΔΔCp vs saline, CXCL12” value (CXCL12) of the same molecule?
Its value is 7.78.

What about the “ΔCp, CXCL12” value (CXCL12; hanging drop culture) of the same molecule?
The value was 14.91.

What about the “% increase (migration vs saline)” value ([1]; chemoattractant 10% FBS) of the same molecule?
The value was 29.1%.

What about the “mean FU” value ([1]; chemoattractant 10% FBS) of the same molecule?
The value was 343.27 FU.

And the “FU 1” value ([1]; chemoattractant 10% FBS)?
Its value is 346.49 FU.

What about the “FU 2” value ([1]; chemoattractant 10% FBS) of the same molecule?
Its value is 329.28 FU.

What about the “FU 3” value ([1]; chemoattractant 10% FBS) of the same molecule?
The value was 354.03 FU.

And the “% increase (migration vs saline)” value ([1]; chemoattractant SDF-1)?
Its value is 1.2%.

What about the “mean FU” value ([1]; chemoattractant SDF-1 (final 50 ng/ml)) of the same molecule?
The value was 255.86 FU.

And the “FU 1” value ([1]; chemoattractant SDF-1)?
Its value is 215.24 FU.

And the “FU 2” value ([1]; chemoattractant SDF-1)?
Its value is 267.07 FU.

And the “FU 3” value ([1]; chemoattractant SDF-1)?
The value was 285.27 FU.

And the “% increase (migration vs saline)” value ([1]; chemoattractant TGF B3)?
Its value is −6.8%.

What about the “mean FU” value ([1]; chemoattractant TGF B3 (final 10 ng/ml)) of the same molecule?
The value was 286.77 FU.

What about the “FU 1” value ([1]; chemoattractant TGF B3) of the same molecule?
The value was 274.97 FU.

And the “FU 2” value ([1]; chemoattractant TGF B3)?
Its value is 288.44 FU.

What about the “FU 3” value ([1]; chemoattractant TGF B3) of the same molecule?
The value was 296.9 FU.
